Assay results: ChEMBL document CHEMBL5465560, “Selectivity Literature for EUbOPEN Chemogenomic Library” (2024)
Blank lines part the entries; values can stand above or below the compound they belong to.

Tests used:
[1] = target: T1, Dual specificity protein kinase TTK (Homo sapiens) (UniProt P33981); test: Selectivity interaction (KinomeScan (DiscoverX)) EUB0001049a TTK; settings: at 1 µM
T1 sequence (whole entry): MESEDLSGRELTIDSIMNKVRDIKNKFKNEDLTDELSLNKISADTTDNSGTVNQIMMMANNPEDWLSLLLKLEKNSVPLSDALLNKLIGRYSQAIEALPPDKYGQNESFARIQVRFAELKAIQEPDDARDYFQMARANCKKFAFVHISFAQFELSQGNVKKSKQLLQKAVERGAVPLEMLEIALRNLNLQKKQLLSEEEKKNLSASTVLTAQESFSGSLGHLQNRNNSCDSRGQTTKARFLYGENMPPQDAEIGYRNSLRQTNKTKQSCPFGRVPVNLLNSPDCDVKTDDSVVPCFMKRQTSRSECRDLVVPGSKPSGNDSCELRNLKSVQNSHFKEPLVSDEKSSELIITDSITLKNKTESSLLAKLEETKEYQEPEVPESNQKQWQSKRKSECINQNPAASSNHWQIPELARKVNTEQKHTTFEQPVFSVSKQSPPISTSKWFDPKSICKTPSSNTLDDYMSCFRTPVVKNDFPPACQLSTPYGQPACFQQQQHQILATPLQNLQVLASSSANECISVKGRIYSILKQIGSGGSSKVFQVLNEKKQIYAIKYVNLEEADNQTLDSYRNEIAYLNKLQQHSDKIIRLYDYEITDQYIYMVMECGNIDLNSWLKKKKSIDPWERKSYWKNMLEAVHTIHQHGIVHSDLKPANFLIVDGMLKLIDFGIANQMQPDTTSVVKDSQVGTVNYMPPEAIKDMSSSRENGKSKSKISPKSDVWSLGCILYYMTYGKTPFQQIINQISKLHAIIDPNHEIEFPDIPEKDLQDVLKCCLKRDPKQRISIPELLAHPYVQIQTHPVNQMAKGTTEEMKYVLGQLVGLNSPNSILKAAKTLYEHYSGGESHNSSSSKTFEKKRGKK

[2] = target: Tyrosine-protein kinase Blk (Homo sapiens) (UniProt P51451); test: Selectivity interaction (Ambit KINOMEscan and KiNATiv profiling in Jurkat cells) EUB0000090b BLK; assay type: cell-based; settings: at 1 µM
[3] = target: Ribosomal protein S6 kinase alpha-1 (Homo sapiens, UniProt Q15418); test: Selectivity interaction (ActivX KiNativ screen (kinase selectivity in THP-1 cell lysates)) EUB0000639a RPS6KA1; assay type: subcellular; settings: lysate, at 0.04 µM
[4] = target: Calcium/calmodulin-dependent protein kinase type 1D (Homo sapiens) (UniProt Q8IU85); test: Selectivity interaction (ActivX KiNativ screen (kinase selectivity in THP-1 cell lysates)) EUB0000639a CAMK1D; assay type: subcellular; settings: lysate, at 0.04 µM
[5] = target: Mitogen-activated protein kinase 9 (Homo sapiens, UniProt P45984); test: Selectivity interaction (ActivX KiNativ screen (kinase selectivity in THP-1 cell lysates)) EUB0000639a MAPK9; assay type: subcellular; settings: lysate, at 1 µM
[6] = target: Casein kinase I isoform gamma-2 (Homo sapiens) (UniProt P78368); test: Selectivity interaction (Kinase panel (Z-LYTE Assay)) EUB0001632a CSNK1G2; settings: at 10 µM
[7] = target: T2, Calcium/calmodulin-dependent protein kinase type IV (Homo sapiens) (UniProt Q16566); settings: at 10 µM
T2 sequence (whole entry): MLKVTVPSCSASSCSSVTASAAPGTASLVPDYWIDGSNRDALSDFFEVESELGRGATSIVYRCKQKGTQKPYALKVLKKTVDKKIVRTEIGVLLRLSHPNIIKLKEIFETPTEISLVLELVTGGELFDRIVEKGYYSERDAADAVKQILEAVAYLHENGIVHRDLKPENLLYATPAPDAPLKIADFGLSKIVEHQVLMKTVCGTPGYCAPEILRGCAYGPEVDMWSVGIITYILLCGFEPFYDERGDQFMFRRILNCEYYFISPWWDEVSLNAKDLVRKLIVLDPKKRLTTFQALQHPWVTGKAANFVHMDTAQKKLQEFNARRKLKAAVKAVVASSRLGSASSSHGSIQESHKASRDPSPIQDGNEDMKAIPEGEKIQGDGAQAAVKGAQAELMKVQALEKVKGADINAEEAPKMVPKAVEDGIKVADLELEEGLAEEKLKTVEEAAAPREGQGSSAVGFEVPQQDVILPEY

[8] = target: Tyrosine-protein kinase Fyn (Homo sapiens) (UniProt P06241); test: Selectivity interaction (KinomeScan (DiscoverX)) EUB0001079a FYN; settings: at 1 µM
[9] = target: T3, Serine/threonine-protein kinase TBK1 (Homo sapiens) (UniProt Q9UHD2); test: Selectivity interaction (KinomeScan (DiscoverX)) EUB0000655a TBK1; settings: at 10 µM
T3 sequence (whole entry): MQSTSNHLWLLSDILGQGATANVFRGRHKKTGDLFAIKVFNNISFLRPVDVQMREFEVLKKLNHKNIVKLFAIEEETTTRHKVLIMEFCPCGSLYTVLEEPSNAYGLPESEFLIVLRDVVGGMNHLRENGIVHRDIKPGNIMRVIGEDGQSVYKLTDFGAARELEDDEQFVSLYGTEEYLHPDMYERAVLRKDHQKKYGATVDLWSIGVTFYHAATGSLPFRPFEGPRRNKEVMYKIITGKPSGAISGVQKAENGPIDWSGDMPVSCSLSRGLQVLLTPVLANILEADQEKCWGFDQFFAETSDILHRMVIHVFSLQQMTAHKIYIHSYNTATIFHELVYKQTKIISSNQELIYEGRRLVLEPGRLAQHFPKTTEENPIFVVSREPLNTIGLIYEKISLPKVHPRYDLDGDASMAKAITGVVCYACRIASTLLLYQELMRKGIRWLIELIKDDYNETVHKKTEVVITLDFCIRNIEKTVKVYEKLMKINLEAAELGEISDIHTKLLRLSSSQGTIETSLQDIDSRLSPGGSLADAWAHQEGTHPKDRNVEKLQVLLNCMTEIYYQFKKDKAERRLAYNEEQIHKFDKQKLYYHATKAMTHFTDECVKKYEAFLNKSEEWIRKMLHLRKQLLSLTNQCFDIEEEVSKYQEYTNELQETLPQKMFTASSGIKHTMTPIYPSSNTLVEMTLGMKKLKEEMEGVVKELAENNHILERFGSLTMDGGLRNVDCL

[10] = target: Phosphatidylinositol 4-kinase beta (Homo sapiens, UniProt Q9UBF8); test: Selectivity interaction (ActivX KiNativ screen (ex vivo kinase selectivity in human PBMCs)) EUB0001619a PI4KB; assay type: cell-based; settings: PBMC, at 1 µM
[11] = target: Tyrosine-protein kinase CSK (Homo sapiens) (UniProt P41240); test: Selectivity interaction (KinomeScan (DiscoverX)) EUB0001619a CSK; settings: at 1 µM
[12] = target: Glycogen synthase kinase-3 alpha (Homo sapiens, UniProt P49840); test: Selectivity interaction (KinomeScan (DiscoverX)) EUB0000607a GSK3A; settings: at 10 µM
[13] = target: Insulin receptor-related protein (Homo sapiens) (UniProt P14616); test: Selectivity interaction (KinomeScan (DiscoverX)) EUB0000607a INSRR; settings: at 10 µM
Chain of Insulin receptor-related protein (Homo sapiens) (P14616 27-742 limits assumed): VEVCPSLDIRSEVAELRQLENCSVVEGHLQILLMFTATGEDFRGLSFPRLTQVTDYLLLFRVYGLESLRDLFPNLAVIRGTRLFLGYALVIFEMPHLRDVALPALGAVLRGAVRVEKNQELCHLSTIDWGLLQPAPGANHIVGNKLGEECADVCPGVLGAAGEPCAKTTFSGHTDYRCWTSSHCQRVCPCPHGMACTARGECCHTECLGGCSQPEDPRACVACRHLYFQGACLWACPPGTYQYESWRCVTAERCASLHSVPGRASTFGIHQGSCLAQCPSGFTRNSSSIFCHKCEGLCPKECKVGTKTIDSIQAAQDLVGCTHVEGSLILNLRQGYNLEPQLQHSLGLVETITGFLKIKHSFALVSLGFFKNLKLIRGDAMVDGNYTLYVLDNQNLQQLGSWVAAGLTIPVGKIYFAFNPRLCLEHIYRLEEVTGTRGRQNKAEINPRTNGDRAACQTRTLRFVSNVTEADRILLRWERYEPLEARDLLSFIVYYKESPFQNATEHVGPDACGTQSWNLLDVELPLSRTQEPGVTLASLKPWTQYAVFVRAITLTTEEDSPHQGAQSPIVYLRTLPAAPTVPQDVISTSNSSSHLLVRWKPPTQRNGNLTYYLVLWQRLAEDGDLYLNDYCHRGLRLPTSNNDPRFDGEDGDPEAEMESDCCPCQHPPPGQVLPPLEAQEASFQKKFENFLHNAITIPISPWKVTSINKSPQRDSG
Chain of Insulin receptor-related protein (Homo sapiens) (P14616 747-1297 limits assumed): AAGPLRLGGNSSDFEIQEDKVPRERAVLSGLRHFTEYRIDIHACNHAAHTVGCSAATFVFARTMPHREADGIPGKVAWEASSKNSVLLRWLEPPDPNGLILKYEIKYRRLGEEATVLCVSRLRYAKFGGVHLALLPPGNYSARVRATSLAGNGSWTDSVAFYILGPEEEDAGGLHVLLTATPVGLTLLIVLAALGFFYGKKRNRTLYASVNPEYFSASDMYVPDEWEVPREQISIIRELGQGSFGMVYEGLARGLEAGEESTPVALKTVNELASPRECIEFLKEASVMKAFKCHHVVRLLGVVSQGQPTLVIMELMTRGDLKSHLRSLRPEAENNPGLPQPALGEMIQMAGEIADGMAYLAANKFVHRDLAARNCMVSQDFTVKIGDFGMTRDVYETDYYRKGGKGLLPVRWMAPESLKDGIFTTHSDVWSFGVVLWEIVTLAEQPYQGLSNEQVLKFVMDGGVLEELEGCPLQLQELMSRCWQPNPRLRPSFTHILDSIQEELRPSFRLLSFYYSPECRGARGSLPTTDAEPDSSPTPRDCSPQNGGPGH

Chain of Mitogen-activated protein kinase 9 (P45984 whole entry, looked up, canonical isoform): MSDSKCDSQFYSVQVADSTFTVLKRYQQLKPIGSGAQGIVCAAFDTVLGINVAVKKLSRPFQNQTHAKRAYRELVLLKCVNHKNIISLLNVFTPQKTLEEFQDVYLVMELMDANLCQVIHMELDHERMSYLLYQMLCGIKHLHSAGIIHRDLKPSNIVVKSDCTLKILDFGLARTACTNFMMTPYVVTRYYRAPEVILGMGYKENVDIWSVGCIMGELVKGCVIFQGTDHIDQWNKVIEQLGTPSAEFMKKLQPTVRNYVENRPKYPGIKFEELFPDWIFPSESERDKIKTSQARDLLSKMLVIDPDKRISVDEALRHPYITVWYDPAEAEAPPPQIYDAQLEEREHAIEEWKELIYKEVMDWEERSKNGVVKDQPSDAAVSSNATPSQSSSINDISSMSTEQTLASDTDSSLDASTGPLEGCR
Chain of Glycogen synthase kinase-3 alpha (P49840 2-483 limits assumed): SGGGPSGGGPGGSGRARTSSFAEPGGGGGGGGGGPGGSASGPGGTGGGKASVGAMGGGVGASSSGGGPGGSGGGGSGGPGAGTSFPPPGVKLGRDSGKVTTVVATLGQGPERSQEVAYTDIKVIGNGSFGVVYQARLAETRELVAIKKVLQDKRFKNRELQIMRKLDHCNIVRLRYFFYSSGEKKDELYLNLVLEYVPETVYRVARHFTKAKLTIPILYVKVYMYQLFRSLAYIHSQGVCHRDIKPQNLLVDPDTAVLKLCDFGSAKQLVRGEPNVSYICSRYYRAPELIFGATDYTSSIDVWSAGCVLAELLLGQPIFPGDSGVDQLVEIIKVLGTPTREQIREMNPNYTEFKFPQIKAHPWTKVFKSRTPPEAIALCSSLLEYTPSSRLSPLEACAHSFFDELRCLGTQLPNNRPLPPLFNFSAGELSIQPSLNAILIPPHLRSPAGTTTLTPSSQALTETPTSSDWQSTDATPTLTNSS
Chain of Casein kinase I isoform gamma-2 (Homo sapiens) (P78368 whole entry, looked up, canonical isoform): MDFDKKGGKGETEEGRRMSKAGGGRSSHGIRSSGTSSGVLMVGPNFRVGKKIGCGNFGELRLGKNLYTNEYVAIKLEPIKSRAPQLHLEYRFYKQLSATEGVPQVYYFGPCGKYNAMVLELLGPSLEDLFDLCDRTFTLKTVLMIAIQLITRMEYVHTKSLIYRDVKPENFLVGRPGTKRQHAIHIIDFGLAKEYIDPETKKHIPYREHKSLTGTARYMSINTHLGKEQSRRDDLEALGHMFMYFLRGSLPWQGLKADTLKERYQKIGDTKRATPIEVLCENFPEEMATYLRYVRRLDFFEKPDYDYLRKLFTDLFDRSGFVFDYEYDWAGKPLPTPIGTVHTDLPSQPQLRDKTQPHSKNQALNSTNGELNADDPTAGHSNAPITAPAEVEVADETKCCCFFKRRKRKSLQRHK
Chain of Calcium/calmodulin-dependent protein kinase type 1D (Homo sapiens) (Q8IU85 whole entry, looked up): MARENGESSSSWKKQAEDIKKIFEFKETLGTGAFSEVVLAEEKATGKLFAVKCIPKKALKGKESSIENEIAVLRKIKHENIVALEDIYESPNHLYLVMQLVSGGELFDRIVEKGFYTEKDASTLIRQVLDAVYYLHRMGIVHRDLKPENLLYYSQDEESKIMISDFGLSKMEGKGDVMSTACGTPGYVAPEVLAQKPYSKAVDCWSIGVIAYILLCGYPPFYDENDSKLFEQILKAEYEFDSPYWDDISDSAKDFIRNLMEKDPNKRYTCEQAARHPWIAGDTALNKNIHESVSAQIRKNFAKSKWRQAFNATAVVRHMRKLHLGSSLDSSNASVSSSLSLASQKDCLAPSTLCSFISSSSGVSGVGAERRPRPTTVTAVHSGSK
Chain of Phosphatidylinositol 4-kinase beta (Q9UBF8 2-816 limits assumed): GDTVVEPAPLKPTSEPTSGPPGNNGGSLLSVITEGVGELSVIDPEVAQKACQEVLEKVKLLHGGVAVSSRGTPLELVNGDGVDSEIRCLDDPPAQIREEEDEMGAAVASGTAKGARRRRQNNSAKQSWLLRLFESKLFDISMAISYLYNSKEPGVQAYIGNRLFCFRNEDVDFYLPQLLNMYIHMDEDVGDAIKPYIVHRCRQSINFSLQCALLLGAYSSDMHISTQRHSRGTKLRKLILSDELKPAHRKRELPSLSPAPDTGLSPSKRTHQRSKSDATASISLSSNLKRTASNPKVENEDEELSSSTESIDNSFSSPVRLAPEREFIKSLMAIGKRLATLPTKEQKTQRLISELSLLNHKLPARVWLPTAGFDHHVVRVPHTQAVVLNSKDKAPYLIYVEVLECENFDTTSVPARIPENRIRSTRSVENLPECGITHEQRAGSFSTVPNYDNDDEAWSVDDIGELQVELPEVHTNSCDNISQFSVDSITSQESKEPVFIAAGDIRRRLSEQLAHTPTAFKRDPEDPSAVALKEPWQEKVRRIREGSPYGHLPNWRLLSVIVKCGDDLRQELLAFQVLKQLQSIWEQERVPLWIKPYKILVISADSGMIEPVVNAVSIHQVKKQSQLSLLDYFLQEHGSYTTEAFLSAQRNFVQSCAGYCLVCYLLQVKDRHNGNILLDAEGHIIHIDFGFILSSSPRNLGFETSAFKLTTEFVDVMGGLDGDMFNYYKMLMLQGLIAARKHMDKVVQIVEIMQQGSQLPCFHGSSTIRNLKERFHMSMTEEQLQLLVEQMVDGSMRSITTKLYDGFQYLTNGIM
Chain of Tyrosine-protein kinase CSK (Homo sapiens) (P41240 2-450 limits assumed): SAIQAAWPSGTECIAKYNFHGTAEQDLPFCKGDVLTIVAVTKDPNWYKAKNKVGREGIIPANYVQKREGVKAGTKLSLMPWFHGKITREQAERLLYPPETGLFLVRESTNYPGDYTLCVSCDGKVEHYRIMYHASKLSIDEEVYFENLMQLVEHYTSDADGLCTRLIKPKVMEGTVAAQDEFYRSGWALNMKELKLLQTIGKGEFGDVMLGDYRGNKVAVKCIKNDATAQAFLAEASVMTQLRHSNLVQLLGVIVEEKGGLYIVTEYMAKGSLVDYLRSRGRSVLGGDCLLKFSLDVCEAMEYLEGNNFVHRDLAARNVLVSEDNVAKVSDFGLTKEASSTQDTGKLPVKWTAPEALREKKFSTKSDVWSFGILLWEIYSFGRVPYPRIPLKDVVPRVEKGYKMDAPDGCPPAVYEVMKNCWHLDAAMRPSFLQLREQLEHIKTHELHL
Chain of Ribosomal protein S6 kinase alpha-1 (Q15418 whole entry): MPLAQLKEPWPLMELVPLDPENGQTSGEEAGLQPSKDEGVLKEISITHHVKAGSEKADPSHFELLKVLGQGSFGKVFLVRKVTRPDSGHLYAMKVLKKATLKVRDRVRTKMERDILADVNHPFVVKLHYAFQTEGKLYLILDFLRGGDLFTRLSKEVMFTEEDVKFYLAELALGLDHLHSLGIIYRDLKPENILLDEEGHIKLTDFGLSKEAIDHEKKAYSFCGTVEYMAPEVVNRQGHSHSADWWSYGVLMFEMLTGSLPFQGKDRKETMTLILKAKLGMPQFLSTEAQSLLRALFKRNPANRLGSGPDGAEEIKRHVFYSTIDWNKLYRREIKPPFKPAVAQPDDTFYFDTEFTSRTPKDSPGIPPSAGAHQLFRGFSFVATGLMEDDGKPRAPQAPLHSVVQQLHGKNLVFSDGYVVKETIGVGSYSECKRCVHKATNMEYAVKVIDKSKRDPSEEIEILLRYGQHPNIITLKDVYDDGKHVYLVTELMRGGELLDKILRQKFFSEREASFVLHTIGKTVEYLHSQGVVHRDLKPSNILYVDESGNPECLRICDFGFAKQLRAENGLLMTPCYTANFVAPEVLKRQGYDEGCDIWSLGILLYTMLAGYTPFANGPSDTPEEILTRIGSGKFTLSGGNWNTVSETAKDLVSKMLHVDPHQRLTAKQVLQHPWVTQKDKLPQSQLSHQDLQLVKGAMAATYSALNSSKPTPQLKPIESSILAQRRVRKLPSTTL

SMILES: COc1cc(Nc2nc(C)cc(-c3cnn4nc(OC)ccc34)n2)cc(C(F)(F)F)c1
% of control [1]: 90%

SMILES: CN(C)C/C=C/C(=O)Nc1ccc(C(=O)N2CCCC(Nc3ncc(Cl)c(-c4c[nH]c5ccccc45)n3)C2)cc1 (stereo not drawn)
% of control [2]: 84%

% of inhibition [3]: 12.4%
% of inhibition [4]: -15.2%
% of inhibition [5]: -5.9%
SMILES: CC[C@@H]1[C@H](F)C(=O)N[C@@H]1COc1nccc2cc(C(N)=O)c(OC)cc12 [ZIMLOVISERTIB]

% of control [6]: 13.1%
SMILES: Cn1cc(-n2cnc3c(NCc4nc5cc(Cl)c(Cl)cc5[nH]4)nc(N4CCOCC4)nc32)cn1

SMILES: COCC(=O)NC/C=C/c1ccc2ncnc(Nc3ccc(Oc4ccc(C)nc4)c(C)c3)c2c1 [CP-724714]
% of control [7]: 86%

SMILES: Nc1cnc(N2CCc3cc(S(=O)(=O)Nc4c(F)cc(Cl)cc4F)cc(N4CCCC4=O)c32)nc1 [TP-020n]
% of control [8]: 58%

SMILES: CN(C)CCOc1ccc(-c2nc(-c3ccncc3)c(-c3ccc4c(c3)CC/C4=N\O)[nH]2)cc1
% of control [9]: 84%

SMILES: N#Cc1cccc(-c2c[nH]c3ncnc(N4CCOCC4)c23)c1
% of inhibition [10]: 5%
% of control [11]: 96%

SMILES: CNC(=O)Nc1ccc(-c2nc(N3CC4CCC(C3)O4)c3cnn(C4CCC5(CC4)OCCO5)c3n2)cc1
% of control [12]: 82%
% of control [13]: 100%
